# In ChEMBL document CHEMBL4118193, “1,2,3,4,6-Penta-O-galloyl-β-d-glucose suppresses colon cancer through induction of tumor suppressor” (Bioorg Med Chem Lett, 2018):
# Calls of active or inactive are those of the source. The rule behind the calls is not given here.
# Columns and labels:
# HCT-116 [1] = experiment: Cell cycle arrest in human HCT116 cells assessed as accumulation at G0/G1 phase at 1 uM after 48 hrs (reference value: 38.5%); format: functional
# HT-29 [2] = experiment: Induction of apoptosis in human HT-29 cells assessed as cyclin E protein level at 10 uM after 48 hrs by Western blot method relative to beta-actin; format: functional
# HCT-116 [3] = experiment: Cell cycle arrest in human HCT116 cells assessed as accumulation at subG1 phase after 48 hrs; format: functional, cell-based
# HCT-116 [4] = experiment: Induction of apoptosis in human HCT116 cells assessed as in p53 protein level at 2.5 uM after 48 hrs by Western blot method relative to beta-actin; format: functional
# HCT-116 [5] = experiment: Cell cycle arrest in human HCT116 cells assessed as accumulation at S phase at 10 uM after 48 hrs (reference value: 10.9%); format: functional
# HCT-116 [6] = experiment: Induction of apoptosis in human HCT116 cells assessed as p21 protein level at 2.5 uM after 48 hrs by Western blot method relative to beta-actin; format: functional
# HT-29 [7] = experiment: Induction of apoptosis in human HT-29 cells assessed as caspase-3 protein level at 1 uM after 48 hrs by Western blot method relative to beta-actin; format: functional
# HCT-116 [8] = experiment: Induction of apoptosis in human HCT116 cells assessed as Bcl-2 protein level at 1 uM after 48 hrs by Western blot method relative to beta-actin; format: functional
# HT-29 [9] = experiment: Cell cycle arrest in human HT-29 cells assessed as accumulation at subG1 phase after 48 hrs; format: functional, cell-based
# HCT-116 [10] = experiment: Cell cycle arrest in human HCT116 cells assessed as accumulation at G0/G1 phase at 2.5 uM after 48 hrs (reference value: 38.5%); format: functional
# HT-29 [11] = experiment: Induction of apoptosis in human HT-29 cells assessed as p21 protein level at 2.5 uM after 48 hrs by Western blot method relative to beta-actin; format: functional
# HCT-116 [12] = experiment: Induction of apoptosis in human HCT116 cells assessed as caspase-3 protein level at 2.5 uM after 48 hrs by Western blot method relative to beta-actin; format: functional
# HT-29 [13] = experiment: Cytotoxicity against human HT-29 cells assessed as reduction in cell viability by MTT assay; format: functional, cell-based
# CCD-18Co = experiment: Antiproliferative activity against human CCD-18Co cells at 1 to 10 uM after 48 hrs by CytoTox-96 non-radioactive assay; format: cell-based
# HCT-116 [14] = experiment: Induction of apoptosis in human HCT116 cells assessed as CDK2 protein level at 2.5 uM after 48 hrs by Western blot method relative to beta-actin; format: functional
# HT-29 [15] = experiment: Induction of apoptosis in human HT-29 cells assessed as Bcl-2 protein level at 2.5 uM after 48 hrs by Western blot method relative to beta-actin; format: functional
# HCT-116 [16] = experiment: Antiproliferative activity against human HCT116 cells at 1 to 10 uM after 48 hrs by CytoTox-96 non-radioactive assay; format: functional, cell-based
# HCT-116 [17] = experiment: Induction of apoptosis in human HCT116 cells assessed as early apoptotic cells at 1 uM after 48 hrs by Annexin-V and dead cell assay (reference value: 1.70%); format: functional
# HCT-116 [18] = experiment: Induction of apoptosis in human HCT116 cells assessed as DNA fragmentation at 1 to 10 uM after 48 hrs by ELISA; format: functional, cell-based
# HT-29 [19] = experiment: Cell cycle arrest in human HT-29 cells assessed as accumulation at G2/M phase at 10 uM after 48 hrs (reference value: 14.7%); format: functional
# HT-29 [20] = experiment: Induction of apoptosis in human HT-29 cells assessed as increase in caspase-3/7 activity at 1 to 10 uM measured after 48 hrs by Caspase-Glo 3/7 assay; format: functional, cell-based
# HT-29 [21] = experiment: Induction of apoptosis in human HT-29 cells assessed as cleaved caspase-3 protein level at 1 uM after 48 hrs by Western blot method relative to caspase-3; format: functional
# HCT-116 [22] = experiment: Cell cycle arrest in human HCT116 cells assessed as accumulation at S phase at 1 uM after 48 hrs (reference value: 10.9%); format: functional
# HT-29 [23] = experiment: Cytotoxicity against human HT-29 cells at 1 to 10 uM after 48 hrs by CytoTox-96 non-radioactive assay; format: functional, cell-based
# HCT-116 [24] = experiment: Induction of apoptosis in human HCT116 cells assessed as late apoptotic cells at 1 uM after 48 hrs by Annexin-V and dead cell assay (reference value: 1.45%); format: functional
# HCT-116 [25] = experiment: Induction of apoptosis in human HCT116 cells assessed as cleaved caspase-3 protein level at 2.5 uM after 48 hrs by Western blot method relative to caspase-3; format: functional
# HCT-116 [26] = experiment: Induction of apoptosis in human HCT116 cells assessed as cyclin E protein level at 5 uM after 48 hrs by Western blot method relative to beta-actin; format: functional
# HT-29 [27] = experiment: Cell cycle arrest in human HT-29 cells assessed as accumulation at G0/G1 phase at 10 uM after 48 hrs (reference value: 53.9%); format: functional
# HCT-116 [28] = experiment: Induction of apoptosis in human HCT116 cells assessed as CDK2 protein level at 1 uM after 48 hrs by Western blot method relative to beta-actin; format: functional
# HCT-116 [29] = experiment: Induction of apoptosis in human HCT116 cells assessed as necrotic cells at 2.5 uM after 48 hrs by Annexin-V and dead cell assay (reference value: 0.10%); format: functional
# HCT-116 [30] = experiment: Induction of apoptosis in human HCT116 cells assessed as caspase-3 protein level at 10 uM after 48 hrs by Western blot method relative to beta-actin; format: functional
# HT-29 [31] = experiment: Induction of apoptosis in human HT-29 cells assessed as caspase-3 protein level at 5 uM after 48 hrs by Western blot method relative to beta-actin; format: functional
# HT-29 [32] = experiment: Induction of apoptosis in human HT-29 cells assessed as cleaved caspase-3 protein level at 5 uM after 48 hrs by Western blot method relative to caspase-3; format: functional
# HCT-116 [33] = experiment: Induction of apoptosis in human HCT116 cells assessed as Bcl-2 protein level at 5 uM after 48 hrs by Western blot method relative to beta-actin; format: functional
# HCT-116 [34] = experiment: Cell cycle arrest in human HCT116 cells assessed as accumulation at G0/G1 phase at 5 uM after 48 hrs (reference value: 38.5%); format: functional
# HCT-116 [35] = experiment: Induction of apoptosis in human HCT116 cells assessed as necrotic cells at 1 uM after 48 hrs by Annexin-V and dead cell assay (reference value: 0.10%); format: functional
# HCT-116 [36] = experiment: Cell cycle arrest in human HCT116 cells assessed as accumulation at S phase at 5 uM after 48 hrs (reference value: 10.9%); format: functional
# HT-29 [37] = experiment: Induction of apoptosis in human HT-29 cells assessed as in p21 protein level at 5 uM after 48 hrs by Western blot method relative to beta-actin; format: functional
# HCT-116 [38] = experiment: Induction of apoptosis in human HCT116 cells assessed as late apoptotic cells at 5 uM after 48 hrs by Annexin-V and dead cell assay (reference value: 1.45%); format: functional
# HT-29 [39] = experiment: Cell cycle arrest in human HT-29 cells assessed as accumulation at G2/M phase at 2.5 uM after 48 hrs (reference value: 14.7%); format: functional
# HCT-116 [40] = experiment: Induction of apoptosis in human HCT116 cells assessed as cyclin E protein level at 1 uM after 48 hrs by Western blot method relative to beta-actin; format: functional
# HCT-116 [41] = experiment: Cytotoxicity against human HCT116 cells assessed as reduction in cell viability by MTT assay; format: functional, cell-based
structure (smiles),measurement,setting,value
O=C(OC[C@H]1O[C@@H](OC(=O)c2cc(O)c(O)c(O)c2)[C@H](OC(=O)c2cc(O)c(O)c(O)c2)[C@@H](OC(=O)c2cc(O)c(O)c(O)c2)[C@@H]1OC(=O)c1cc(O)c(O)c(O)c1)c1cc(O)c(O)c(O)c1 [PENTAGALLOYL GLUCOSE],Activity,HCT-116 [1],37.5%
same,fold change (FC),HT-29 [2],0.1
same,Activity,HCT-116 [3],Dose-dependent effect
same,fold change (FC),HCT-116 [4],2.5
same,Activity,HCT-116 [5],11.8%
same,fold change (FC),HCT-116 [6],1.4
same,fold change (FC),HT-29 [7],1.6
same,fold change (FC),HCT-116 [8],1.3
same,Activity,HT-29 [9],Dose-dependent effect
same,Activity,HCT-116 [10],34%
same,fold change (FC),HT-29 [11],2.8
same,fold change (FC),HCT-116 [12],109.9
same,IC50,HT-29 [13],4.46 µM
same,Activity,CCD-18Co,Non-Toxic
same,fold change (FC),HCT-116 [14],0.8
same,fold change (FC),HT-29 [15],0.3
same,Activity,HCT-116 [16],Active
same,Activity,HCT-116 [17],1%
same,Activity,HCT-116 [18],Active
same,Activity,HT-29 [19],11.7%
same,Activity,HT-29 [20],Active
same,fold change (FC),HT-29 [21],3
same,Activity,HCT-116 [22],9.8%
same,Activity,HT-29 [23],Active
same,Activity,HCT-116 [24],0.65%
same,fold change (FC),HCT-116 [25],1.8
same,fold change (FC),HCT-116 [26],0.6
same,Activity,HT-29 [27],37.3%
same,fold change (FC),HCT-116 [28],0.9
same,Activity,HCT-116 [29],0.1%
same,fold change (FC),HCT-116 [30],488.4
same,fold change (FC),HT-29 [31],5.9
same,fold change (FC),HT-29 [32],7
same,fold change (FC),HCT-116 [33],1.2
same,Activity,HCT-116 [34],17.9%
same,Activity,HCT-116 [35],0.1%
same,Activity,HCT-116 [36],17.8%
same,fold change (FC),HT-29 [37],1.8
same,Activity,HCT-116 [38],4.35%
same,Activity,HT-29 [39],20.8%
same,fold change (FC),HCT-116 [40],1.8
same,IC50,HCT-116 [41],1.61 µM
